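The compound was tested at five concentrations on cells cultured in 96-well plates, with a 48-hour exposure period. Abbreviation: GI50, concentration required for 50% inhibition of growth.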 Activity calls are given as the source filed them. No stated cut-off is given here; in the data, active = GI50 up to about 1.1 µM and inactive = higher.
What was measured:
Experiment in all cases: NCI anticancer screen, dose series, 48 h
[1] = system: DU-145
[2] = system: K562
[3] = system: MCF7
[4] = system: NCI-H522
[5] = system: NCI-H226
[6] = system: EKVX
[7] = system: IGROV-1
[8] = system: OVCAR-3
[9] = system: CAKI-1
[10] = system: SF-268
[11] = system: HOP-62
[12] = system: RPMI-8226
[13] = system: UACC-62
[14] = system: UO-31
[15] = system: SK-MEL-2
[16] = system: RXF 393
[17] = system: SW-620
[18] = system: UACC-257
[19] = system: HOP-92
[20] = system: SK-MEL-28
[21] = system: COLO 205
[22] = system: PC-3
[23] = system: SK-OV-3
[24] = system: SN12C
[25] = system: Malme-3M
[26] = system: HCC 2998
[27] = system: SF-539
[28] = system: HT-29
[29] = system: HCT-15
[30] = system: OVCAR-8
[31] = system: MDA-MB-435
[32] = system: 786-0
[33] = system: SNB-19
[34] = system: MDA-MB-231
[35] = system: OVCAR-5
[36] = system: Hs-578T
[37] = system: TK-10
[38] = system: M14
[39] = system: KM12
[40] = system: SR
[41] = system: HCT-116
[42] = system: BT-549
[43] = system: NCI-H460
[44] = system: U-251
[45] = system: SK-MEL-5
[46] = system: NCI-H23
[47] = system: NCI/ADR-RES
[48] = system: T47D
[49] = system: MDA-N
[50] = system: A549
[51] = system: SF-295
[52] = system: SNB-75
[53] = system: CCRF-CEM
[54] = system: MOLT-4
[55] = system: A498
[56] = system: OVCAR-4
[57] = system: LOX IMVI
[58] = system: ACHN

Structure (SMILES): CCOC(=O)c1ccc(/N=C2/C(=S)N(c3ccc(C(=O)OCC)cc3)C(=N)N2/N=C/c2ccccc2)cc1
- GI50 [1]: 37.3 µM (inactive)
- GI50 [2]: 3.7 µM (inactive)
- GI50 [3]: 6.68 µM (inactive)
- GI50 [4]: 2.34 µM (inactive)
- GI50 [5]: 15 µM (inactive)
- GI50 [6]: 27.1 µM (inactive)
- GI50 [7]: 30.6 µM (inactive)
- GI50 [8]: 13.1 µM (inactive)
- GI50 [9]: 13.9 µM (inactive)
- GI50 [10]: 16.2 µM (inactive)
- GI50 [11]: > 10 µM (inactive)
- GI50 [12]: 4.13 µM (inactive)
- GI50 [13]: 5.7 µM (inactive)
- GI50 [14]: 13.2 µM (inactive)
- GI50 [15]: 26.1 µM (inactive)
- GI50 [16]: 5.13 µM (inactive)
- GI50 [17]: 1.51 µM (inactive)
- GI50 [18]: > 10 µM (inactive)
- GI50 [19]: 15.9 µM (inactive)
- GI50 [20]: > 10 µM (inactive)
- GI50 [21]: 5.06 µM (inactive)
- GI50 [22]: 2.61 µM (inactive)
- GI50 [23]: 24.1 µM (inactive)
- GI50 [24]: 17.9 µM (inactive)
- GI50 [25]: 17.6 µM (inactive)
- GI50 [26]: 21.8 µM (inactive)
- GI50 [27]: 20.1 µM (inactive)
- GI50 [28]: 18.4 µM (inactive)
- GI50 [29]: 27.3 µM
- GI50 [30]: 28.2 µM (inactive)
- GI50 [31]: > 10 µM (inactive)
- GI50 [32]: 11.3 µM (inactive)
- GI50 [33]: 14.3 µM (inactive)
- GI50 [34]: 8.05 µM (inactive)
- GI50 [35]: 20 µM (inactive)
- GI50 [36]: 47 µM (inactive)
- GI50 [37]: 23.2 µM (inactive)
- GI50 [38]: 11.8 µM (inactive)
- GI50 [39]: 14.7 µM (inactive)
- GI50 [40]: 3.52 µM (inactive)
- GI50 [41]: 6.11 µM (inactive)
- GI50 [42]: 17.5 µM (inactive)
- GI50 [43]: 15.5 µM (inactive)
- GI50 [44]: > 10 µM (inactive)
- GI50 [45]: 3.37 µM (inactive)
- GI50 [46]: > 10 µM (inactive)
- GI50 [47]: 38.3 µM (inactive)
- GI50 [48]: 2.77 µM (inactive)
- GI50 [49]: 12.1 µM (inactive)
- GI50 [50]: 30 µM (inactive)
- GI50 [51]: 26.7 µM (inactive)

Structure (SMILES): COC(OC)C1OC(CO)C(n2ccc(N)nc2=O)C1O (centres undefined)
- GI50 [1]: > 100 µM (inactive)
- GI50 [2]: > 100 µM (inactive)
- GI50 [3]: > 100 µM (inactive)
- GI50 [4]: > 100 µM (inactive)
- GI50 [5]: > 100 µM (inactive)
- GI50 [6]: > 100 µM (inactive)
- GI50 [7]: > 100 µM (inactive)
- GI50 [8]: > 100 µM (inactive)
- GI50 [9]: > 100 µM (inactive)
- GI50 [10]: > 100 µM (inactive)
- GI50 [11]: > 100 µM (inactive)
- GI50 [12]: > 100 µM (inactive)
- GI50 [13]: > 100 µM (inactive)
- GI50 [14]: > 100 µM (inactive)
- GI50 [52]: > 100 µM (inactive)
- GI50 [15]: > 100 µM (inactive)
- GI50 [16]: > 100 µM (inactive)
- GI50 [17]: > 100 µM (inactive)
- GI50 [18]: > 100 µM (inactive)
- GI50 [19]: > 100 µM (inactive)
- GI50 [20]: > 100 µM (inactive)
- GI50 [21]: > 100 µM (inactive)
- GI50 [22]: > 100 µM (inactive)
- GI50 [23]: > 100 µM (inactive)
- GI50 [24]: > 100 µM (inactive)
- GI50 [25]: > 100 µM (inactive)
- GI50 [26]: > 100 µM (inactive)
- GI50 [27]: > 100 µM (inactive)
- GI50 [28]: > 100 µM (inactive)
- GI50 [29]: > 100 µM
- GI50 [30]: > 100 µM (inactive)
- GI50 [31]: > 100 µM (inactive)
- GI50 [32]: > 100 µM (inactive)
- GI50 [33]: > 100 µM (inactive)
- GI50 [34]: > 100 µM (inactive)
- GI50 [53]: > 100 µM (inactive)
- GI50 [35]: > 100 µM (inactive)
- GI50 [36]: > 100 µM (inactive)
- GI50 [37]: > 100 µM (inactive)
- GI50 [38]: > 100 µM (inactive)
- GI50 [39]: > 100 µM (inactive)
- GI50 [40]: > 100 µM (inactive)
- GI50 [54]: > 100 µM (inactive)
- GI50 [41]: > 100 µM (inactive)
- GI50 [42]: > 100 µM (inactive)
- GI50 [43]: > 100 µM (inactive)
- GI50 [55]: > 100 µM (inactive)
- GI50 [44]: > 100 µM (inactive)
- GI50 [45]: > 100 µM (inactive)
- GI50 [46]: > 100 µM (inactive)
- GI50 [47]: > 100 µM (inactive)
- GI50 [48]: > 100 µM (inactive)
- GI50 [49]: > 100 µM (inactive)
- GI50 [56]: > 100 µM (inactive)
- GI50 [50]: > 100 µM (inactive)
- GI50 [57]: > 100 µM (inactive)
- GI50 [58]: > 100 µM (inactive)
- GI50 [51]: > 100 µM (inactive)
